According to patent US20250144067A1, “PERSONALIZED STARVATION THERAPY FOR CANCER” (Faeth Therapeutics, Inc., priority 2021, published 2025):
Structures can show the parent of a compound that is named as a salt.

How the values were obtained:
[1] = tested on: NCI-H292 lung cancer cells; assay: FDA drug screening, complete media vs cholesterol-free media with simvastatin (TABLE 2); format: cell-based, human; conditions: for Cholesterol-free media + simvastatin (0.04 μM) / Complete Media: NCI-H292 cells
[2] = tested on: NCI-H292 lung cancer cells; assay: FDA drug screening, complete media vs cholesterol-free media without statin (TABLE 1); format: cell-based, human
[3] = cholesterol-free media with simvastatin 0.04 μM, cell growth value in FDA drug screen
[4] = complete media, cell growth value in FDA drug screen
[5] = complete media minus cholesterol-free media + simvastatin, >0 enhanced anti-cancer activity, about 0 neutral, <0 antagonist
[6] = Complete minus Cholesterol-free, greater than 0 enhanced anti-cancer activity, about 0 neutral, below 0 antagonists
[7] = NCI-H292 cells in cholesterol-free media without statin
[8] = NCI-H292 cells in complete media
[9] = drug in cholesterol-free media with simvastatin 0.04 μM
[10] = complete media vs cholesterol-free media + simvastatin (0.04 μM), >0 enhanced anti-cancer activity, about 0 neutral, <0 antagonist
[11] = NCI-H292 cells, cholesterol-free media without statin
[12] = complete vs cholesterol-free media, greater than 0 enhanced anti-cancer activity, about 0 neutral, below 0 antagonists
[13] = FDA drug library screen, cholesterol-free media with simvastatin 0.04 μM
[14] = FDA drug library screen, complete media
[15] = Complete minus Cholesterol-free, greater than 0 enhanced anti-cancer activity, about 0 neutral, below 0 antagonist
[16] = NCI-H292 cells, FDA drug library screen, cholesterol-free media without statin
[17] = NCI-H292 cells, FDA drug library screen, complete media
[18] = Complete minus Cholesterol-free, >0 enhanced anti-cancer activity, about 0 neutral, <0 antagonist
[19] = NCI-H292 cells, cholesterol-free media without statin, FDA drug library screen
[20] = NCI-H292 cells, complete media, FDA drug library screen
[21] = complete vs cholesterol-free media, >0 enhanced anti-cancer activity, about 0 neutral, <0 antagonist
[22] = FDA library drug in cholesterol-free media with simvastatin 0.04 μM
[23] = FDA library drug in complete media
[24] = cholesterol-free media with simvastatin 0.04 μM, FDA drug library screen (TABLE 2)
[25] = complete media, FDA drug library screen (TABLE 2)
[26] = complete media minus cholesterol-free media + simvastatin (0.04 μM), >0 enhanced anti-cancer activity, about 0 neutral, <0 antagonist

Compound: Nc1cc(F)ccc1NC(=O)c1ccc(CNC(=O)/C=C/c2cccnc2)cc1 [Tucidinostat]
- Cholesterol-free media + simvastatin (0.04 μM) [1, 3]: 0.5739
- Complete Media [1, 4]: 0.6176
- Difference [1, 5]: 0.04
- Difference [2, 6]: −0.51
- Cholesterol-free [2, 7]: 1.245
- Complete [2, 8]: 0.7308

Compound: Garenoxacin (Mesylate hydrate)
- Cholesterol-free media + simvastatin (0.04 μM) [1, 9]: 1.436
- Complete Media ([1]; drug in complete media): 1.268
- Difference [1, 10]: −0.17
- Cholesterol-free [2, 11]: 1.769
- Complete ([2]; NCI-H292 cells, complete media): 1.3
- Difference [2, 12]: −0.47

Compound: [H]/N=C(/N)N/C(=N/[H])NCCc1ccccc1 [Phenformin (hydrochloride)]
- Cholesterol-free media + simvastatin (0.04 μM) [1, 13]: 1.171
- Complete Media [1, 14]: 1.373
- Difference [1, 5]: 0.20
- Difference [2, 15]: −0.12
- Cholesterol-free [2, 16]: 0.9657
- Complete [2, 17]: 0.8472

Compound: C[C@H]1[C@@H](O)O[C@@H]2O[C@@]3(C)CC[C@H]4[C@H](C)CC[C@@H]1[C@@]24OO3 [Dihydroartemisinin]
- Cholesterol-free media + simvastatin (0.04 μM) [1, 9]: 0.9193
- Complete Media ([1]; drug in complete media): 0.7262
- Difference [1, 10]: −0.19
- Difference [2, 18]: 0.05
- Cholesterol-free [2, 19]: 0.5972
- Complete [2, 20]: 0.6489

Compound: CCc1nc(N)nc(N)c1-c1ccc(Cl)cc1 [Pyrimethamine]
- Cholesterol-free media + simvastatin (0.04 μM) [1, 9]: 1.205
- Complete Media ([1]; drug in complete media): 1.02
- Difference [1, 10]: −0.19
- Cholesterol-free [2, 19]: 1.197
- Complete [2, 20]: 1.426
- Difference [2, 21]: 0.23

Compound: O=C(Nc1c(Cl)cncc1Cl)c1ccc(OC(F)F)c(OCC2CC2)c1 [Roflumilast]
- Cholesterol-free media + simvastatin (0.04 μM) [1, 22]: 1.607
- Complete Media [1, 23]: 0.8972
- Difference [1, 10]: −0.71
- Difference [2, 18]: −0.06
- Cholesterol-free [2, 19]: 0.9495
- Complete [2, 20]: 0.8928

Compound: Gilteritinib hemifumarate
- Cholesterol-free media + simvastatin (0.04 μM) [1, 22]: 0.9393
- Complete Media [1, 23]: 0.4057
- Difference ([1]; complete media vs cholesterol-free media + simvastatin (0.04 μM), […]): −0.53
- Cholesterol-free [2, 19]: 0.3721
- Complete [2, 20]: 0.7198
- Difference ([2]; complete vs cholesterol-free media, […]): 0.35

Compound: CC(C)C[C@H](NC(=O)[C@H](Cc1ccccc1)NC(=O)c1cnccn1)B(O)O [Bortezomib]
- Cholesterol-free media + simvastatin (0.04 μM) [1, 24]: 0.003233
- Complete Media [1, 25]: −0.017
- Difference [1, 26]: −0.02
- Difference [2, 18]: 0.00
- Cholesterol-free [2, 19]: 0.006863
- Complete [2, 20]: 0.00697

Compound: CSCC[C@H](N)C(=O)O [L-Methionine]
- Cholesterol-free media + simvastatin (0.04 μM) [1, 3]: 0.8406
- Complete Media [1, 4]: 0.8869
- Difference [1, 5]: 0.05
- Difference [2, 15]: −0.12
- Cholesterol-free [2, 16]: 0.9015
- Complete [2, 17]: 0.7822

Compound: Indinavir (sulfate)
- Cholesterol-free media + simvastatin (0.04 μM) [1, 24]: 0.8636
- Difference [1, 26]: 0.01
- Difference [2, 6]: −0.65
- Cholesterol-free [2, 7]: 1.599
- Complete [2, 8]: 0.946

Compound: CC1Cc2ccccc2N1NC(=O)c1ccc(Cl)c(S(N)(=O)=O)c1 (centres unmarked) [Indapamide]
- Cholesterol-free media + simvastatin (0.04 μM) [1, 9]: 1.217
- Complete Media ([1]; drug in complete media): 0.9676
- Difference [1, 10]: −0.25
- Difference [2, 6]: −0.63
- Cholesterol-free [2, 7]: 1.388
- Complete [2, 8]: 0.7593

Compound: CC(=O)OC[C@H]1O[C@@H](n2ccc(=O)[nH]c2=O)[C@H](OC(C)=O)[C@@H]1OC(C)=O [Uridine triacetate]
- Cholesterol-free media + simvastatin (0.04 μM) [1, 9]: 1.076
- Complete Media ([1]; drug in complete media): 0.8641
- Difference [1, 10]: −0.21
- Cholesterol-free [2, 19]: 1.055
- Complete [2, 20]: 1.37
- Difference [2, 21]: 0.32

Compound: COc1cc(/C=C/C(=O)O)ccc1O [Ferulic acid]
- Cholesterol-free media + simvastatin (0.04 μM) [1, 22]: 1.055
- Complete Media [1, 23]: 0.7118
- Difference [1, 10]: −0.34
- Difference [2, 18]: −0.23
- Cholesterol-free [2, 11]: 1.087
- Complete ([2]; NCI-H292 cells, complete media): 0.8516

Compound: OC1(c2ccc(Cl)c(C(F)(F)F)c2)CCN(CCCC(c2ccc(F)cc2)c2ccc(F)cc2)CC1 [Penfluridol]
- Cholesterol-free media + simvastatin (0.04 μM) [1, 24]: 1.076
- Complete Media [1, 25]: 1.033
- Difference [1, 26]: −0.04
- Difference [2, 15]: −0.14
- Cholesterol-free [2, 16]: 0.7419
- Complete [2, 17]: 0.6047

Compound: CC(C)NCC(O)COc1ccc(CCOCC2CC2)cc1 (centres unmarked) [Betaxolol]
- Cholesterol-free media + simvastatin (0.04 μM) [1, 24]: 0.941
- Complete Media [1, 25]: 0.9172
- Difference [1, 26]: −0.02
- Difference [2, 15]: −0.10
- Cholesterol-free [2, 16]: 1.183
- Complete [2, 17]: 1.079

Compound: CCOC(=O)/C=C(C)/C=C/C=C(C)/C=C/c1c(C)cc(OC)c(C)c1C [Etretinate]
- Cholesterol-free media + simvastatin (0.04 μM) [1, 13]: 0.824
- Complete Media [1, 14]: 1.055
- Difference ([1]; complete media minus cholesterol-free media + simvastatin, […]): 0.23
- Difference ([2]; Complete minus Cholesterol-free, […]): −0.71
- Cholesterol-free [2, 7]: 1.459
- Complete [2, 8]: 0.7469

Compound: C[C@@H](CN1CC(=O)NC(=O)C1)N1CC(=O)NC(=O)C1 [Dexrazoxane (hydrochloride)]
- Cholesterol-free media + simvastatin (0.04 μM) [1, 22]: 1.279
- Complete Media [1, 23]: 1.002
- Difference [1, 10]: −0.28
- Difference [2, 18]: 0.03
- Cholesterol-free [2, 19]: 0.9516
- Complete [2, 20]: 0.9799

Compound: O=S(=O)(O)Oc1ccc(C(c2ccc(OS(=O)(=O)O)cc2)c2ccccn2)cc1 [Sodium Picosulfate]
- Cholesterol-free media + simvastatin (0.04 μM) [1, 13]: 0.987
- Complete Media [1, 14]: 1.164
- Difference [1, 5]: 0.18
- Cholesterol-free [2, 11]: 1.414
- Complete ([2]; NCI-H292 cells, complete media): 1.043
- Difference [2, 12]: −0.37

Compound: Cc1cn(-c2cc(NC(=O)c3ccc(C)c(Nc4nccc(-c5cccnc5)n4)c3)cc(C(F)(F)F)c2)cn1
- Cholesterol-free media + simvastatin (0.04 μM) [1, 13]: 0.854
- Complete Media [1, 14]: 0.7821
- Difference [1, 10]: −0.07
- Difference [2, 6]: −0.54
- Cholesterol-free [2, 7]: 1.23
- Complete [2, 8]: 0.6857

Compound: COC(=O)c1ccccc1O [Methyl Salicylate]
- Cholesterol-free media + simvastatin (0.04 μM) [1, 3]: 0.8236
- Complete Media [1, 4]: 0.8959
- Difference [1, 5]: 0.07
- Difference [2, 18]: −0.24
- Cholesterol-free [2, 11]: 0.9648
- Complete ([2]; NCI-H292 cells, complete media): 0.722

Compound: Nc1ncn([C@@H]2O[C@H](CO)[C@@H](O)[C@H]2O)c(=O)n1 [5-Azacytidine]
- Cholesterol-free media + simvastatin (0.04 μM) [1, 24]: 0.9383
- Complete Media [1, 25]: 0.8858
- Difference [1, 26]: −0.05
- Cholesterol-free [2, 11]: 1.157
- Complete ([2]; NCI-H292 cells, complete media): 0.8064
- Difference [2, 12]: −0.35

Compound: Cc1noc(NS(=O)(=O)c2ccc(N)cc2)c1C [Sulfisoxazole]
- Cholesterol-free media + simvastatin (0.04 μM) [1, 13]: 1.12
- Complete Media [1, 14]: 1.045
- Difference [1, 10]: −0.08
- Cholesterol-free [2, 11]: 1.273
- Complete ([2]; NCI-H292 cells, complete media): 0.8703
- Difference [2, 12]: −0.40

Compound: COc1cccc(-c2c(C)n(Cc3c(F)cccc3C(F)(F)F)c(=O)n(C[C@H](NCCCC(=O)O)c3ccccc3)c2=O)c1F [Elagolix sodium]
- Cholesterol-free media + simvastatin (0.04 μM) [1, 13]: 1.413
- Complete Media [1, 14]: 1.627
- Difference [1, 5]: 0.21
- Difference [2, 6]: −0.93
- Cholesterol-free [2, 7]: 1.728
- Complete [2, 8]: 0.7978

Compound: C[N+](C)(C)NCCC(=O)[O-] [Mildronate]
- Cholesterol-free media + simvastatin (0.04 μM) [1, 24]: 0.9839
- Complete Media [1, 25]: 0.9927
- Difference [1, 26]: 0.01
- Difference [2, 15]: −0.08
- Cholesterol-free [2, 16]: 0.9949
- Complete [2, 17]: 0.9146

Compound: COc1ccc2cccc(CCNC(C)=O)c2c1 [Agomelatine (hydrochloride)]
- Cholesterol-free media + simvastatin (0.04 μM) [1, 22]: 1.126
- Complete Media [1, 23]: 0.7656
- Difference [1, 10]: −0.36
- Difference [2, 18]: 0.00
- Cholesterol-free [2, 19]: 0.7477
- Complete [2, 20]: 0.7483
